Converted amounts (≈) assume the structure as drawn. Positions of bridges follow the written chain, without caps; N, C: chain ends. Residues, ends and D or L forms follow the SMILES beside them.
How the values were obtained:
HIV = assay: Antiviral activity against HIV in HIV-infected MT-4 cells (MTT method); format: cell-based, human immunodeficiency virus; details: for EC50 (concentration at which cell death due to HIV infection is 50% inhibited): HIV-infected MT-4 cells, MOI 0.001, 37° C., 5 days, MTT method; for selectivity in killing HIV infected cells (in words): MT-4 cells, Table III; for selectivity index higher than for any of the known high endotoxin affinity compounds: compared with Tachyplesins and Polyphemusins of Table III
Protocol: The antiviral activity-against HIV of the polypeptide (1) synthesized in Example 1 as well as polypeptides (2), (3), (4), (7), (12), (13), (14), (20), (21) and (26) was tested and evaluated according to the following method.
(§1) HIV-infected MT-4 cells (2.5×10^4 cells/well, multiplicity of infection (MOI): 0.001) immediately after infection were added together with the test substance with various changes of the concentration to a 96-well microtitre plate. After incubation at 37° C. for 5 days in a CO2 incubator, the number of survivor cells was measured by the MTT method [Pauwels et al.; J. Virol. Methods, 20, 309-321 (1988)]. The antiviral activity is expressed as a concentration at which cell death due to HIV infection is 50% inhibited (EC50 : 50% effective concentration). On the other hand, in order to know the cytotoxicity of the test substance on the MT-4 cells, virus-noninfected cells are incubated, likewise as above, together with the test compound with various changes of the concentration. The cytotoxicity is expressed as 50% cytotoxic concentration […] due to the test substance. Further, the rough ratio of CC50 to EC50 (CC50 /EC50) is expressed as an effective ratio (SI=selectivity index).

MT-4 cells = assay: Cytotoxicity on virus-noninfected MT-4 cells (MTT method); format: cell-based; details: 37° C., 5 days
Protocol: as §1

Q: What does the source list for `N=C(N)NCCC[C@H](NC(=O)[C@@H]1CSSC[C@H](NC(=O)[C@H](Cc2c[nH]c3ccccc23)NC(=O)[C@H](CCCNC(=N)N)NC(=O)[C@@H](N)CCCNC(=N)N)C(=O)N[C@@H](Cc2ccc(O)cc2)C(=O)N[C@@H](CCCNC(=N)N)C(=O)N[C@@H](CCCCN)C(=O)N[C@H]2CSSC[C@H](NC(=O)[C@H](Cc3ccc(O)cc3)NC(=O)CNC(=O)[C@H](CCCCN)NC(=O)[C@H](Cc3ccc(O)cc3)NC2=O)C(=O)N[C@@H](Cc2ccc(O)cc2)C(=O)N[C@@H](CCCNC(=N)N)C(=O)N[C@@H](CCCCN)C(=O)N1)C(N)=O` [polypeptide (1)] (H-RRWCYRKCYKGYCYRKCR-NH2; disulfide 4-17, 8-13)?
A: SI (CC50 /EC50) (HIV; rough ratio of CC50 to EC50, MT-4 cells): 10800; CC50 (50% cytotoxic concentration) (MT-4 cells): 54 µg/mL (≈ 21.7 µM)

Q: `N=C(N)NCCC[C@H](NC(=O)[C@@H]1CSSC[C@H](NC(=O)[C@H](Cc2c[nH]c3ccccc23)NC(=O)[C@H](CCCNC(=N)N)NC(=O)[C@@H](N)CCCNC(=N)N)C(=O)N[C@@H](Cc2ccc(O)cc2)C(=O)N[C@@H](CCCNC(=N)N)C(=O)N[C@@H](CCCCN)C(=O)N[C@H]2CSSC[C@H](NC(=O)[C@H](Cc3ccccc3)NC(=O)CNC(=O)[C@H](CCCCN)NC(=O)[C@H](Cc3ccc(O)cc3)NC2=O)C(=O)N[C@@H](Cc2ccc(O)cc2)C(=O)N[C@@H](CCCNC(=N)N)C(=O)N[C@@H](CCCCN)C(=O)N1)C(N)=O` [polypeptide (13), ArgArgTrpCysTyrArgLysCysTyrLysGlyPheCysTyrArgLysCysArgNH2] (H-RRWCYRKCYKGFCYRKCR-NH2; disulfide 4-17, 8-13; N-terminus assumed) was tested. Which “EC50 (concentration at which cell death due to HIV infection is 50% inhibited)” value (HIV) did it give?
A: 0.009 µg/mL (≈ 0.00364 µM)

Q: And the “selectivity in killing HIV infected cells (in words)” value (“selectivity … (in words)” below) (HIV)?
A: particularly selective

Q: And the “selectivity index higher than for any of the known high endotoxin affinity compounds” value (shortened to “selectivity index higher than for any”) (HIV)?
A: at least 7 fold

Q: And the “CC50 (50% cytotoxic concentration)” value (MT-4 cells)?
A: 52 µg/mL (≈ 21 µM)

Q: For `N=C(N)NCCC[C@H](NC(=O)[C@@H]1CSSC[C@H](NC(=O)[C@H](Cc2c[nH]c3ccccc23)NC(=O)[C@H](CCCNC(=N)N)NC(=O)[C@@H](N)CCCNC(=N)N)C(=O)N[C@@H](Cc2ccc(O)cc2)C(=O)N[C@@H](CCCNC(=N)N)C(=O)N[C@@H](CCCCN)C(=O)N[C@H]2CSSC[C@H](NC(=O)[C@H](Cc3ccc(O)cc3)NC(=O)CNC(=O)[C@H](CCCNC(=N)N)NC(=O)[C@H](Cc3ccc(O)cc3)NC2=O)C(=O)N[C@@H](Cc2ccc(O)cc2)C(=O)N[C@@H](CCCNC(=N)N)C(=O)N[C@@H](CCCCN)C(=O)N1)C(N)=O` [polypeptide (14), ArgArgTrpCysTyrArgLysCysTyrArgGlyTyrCysTyrArgLysCysArgNH2] (H-RRWCYRKCYRGYCYRKCR-NH2; disulfide 4-17, 8-13; N-terminus assumed), which “EC50 (concentration at which cell death due to HIV infection is 50% inhibited)” value (HIV) is on record?
A: 0.018 µg/mL (≈ 0.00716 µM)

Q: What about the “selectivity … (in words)” value (HIV) of the same molecule?
A: particularly selective

Q: What about the “selectivity index higher than for any” value (HIV) of the same molecule?
A: at least 7 fold

Q: What about the “CC50 (50% cytotoxic concentration)” value (MT-4 cells) of the same molecule?
A: 52 µg/mL (≈ 20.7 µM)

Q: Which results are given for `N=C(N)NCCC[C@H](NC(=O)[C@@H]1CSSC[C@H](NC(=O)[C@H](Cc2c[nH]c3ccccc23)NC(=O)[C@H](CCCNC(=N)N)NC(=O)[C@@H](N)CCCNC(=N)N)C(=O)N[C@@H](Cc2ccc(O)cc2)C(=O)N[C@@H](CCCNC(=N)N)C(=O)N[C@@H](CCCCN)C(=O)N[C@H]2CSSC[C@H](NC(=O)[C@H](Cc3ccccc3)NC(=O)CNC(=O)[C@H](CCCCN)NC(=O)[C@H](Cc3ccccc3)NC2=O)C(=O)N[C@@H](Cc2ccc(O)cc2)C(=O)N[C@@H](CCCNC(=N)N)C(=O)N[C@@H](CCCCN)C(=O)N1)C(N)=O` [polypeptide (20), ArgArgTrpCysTyrArgLysCysPheLysGlyPheCysTyrArgLysCysArgNH2] (H-RRWCYRKCFKGFCYRKCR-NH2; disulfide 4-17, 8-13; N-terminus assumed)?
A: EC50 (concentration at which cell death due to HIV infection is 50% inhibited) (HIV): 0.01 µg/mL (≈ 0.00407 µM); CC50 (50% cytotoxic concentration) (MT-4 cells): 54 µg/mL (≈ 22 µM)

Q: What does the source list for `N=C(N)NCCC[C@H](NC(=O)[C@H](CCCNC(=N)N)NC(=O)[C@@H]1CSSC[C@H](NC(=O)[C@H](Cc2c[nH]c3ccccc23)NC(=O)[C@@H](N)CCCNC(=N)N)C(=O)N[C@@H](Cc2ccc(O)cc2)C(=O)N[C@@H](CCCNC(=N)N)C(=O)N[C@@H](CCCCN)C(=O)N[C@H]2CSSC[C@H](NC(=O)[C@H](Cc3ccccc3)NC(=O)CNC(=O)[C@H](CCCCN)NC(=O)[C@H](Cc3ccc(O)cc3)NC2=O)C(=O)N[C@@H](Cc2ccc(O)cc2)C(=O)N[C@@H](CCCNC(=N)N)C(=O)N[C@@H](CCCCN)C(=O)N1)C(N)=O` [polypeptide (4), ArgTrpCysTyrArgLysCysTyrLysGlyPheCysTyrArgLysCysArgArgNH2] (H-RWCYRKCYKGFCYRKCRR-NH2; disulfide 3-16, 7-12; N-terminus assumed)?
A: EC50 (concentration at which cell death due to HIV infection is 50% inhibited) (HIV): 2.75 µg/mL (≈ 1.11 µM); CC50 (50% cytotoxic concentration) (MT-4 cells): 338 µg/mL (≈ 137 µM)

Q: `N=C(N)NCCC[C@H](NC(=O)[C@@H]1CSSC[C@H](NC(=O)[C@H](Cc2c[nH]c3ccccc23)NC(=O)[C@@H](N)CCCNC(=N)N)C(=O)N[C@@H](Cc2ccc(O)cc2)C(=O)N[C@@H](CCCNC(=N)N)C(=O)N[C@@H](CCCCN)C(=O)N[C@H]2CSSC[C@H](NC(=O)[C@H](Cc3ccccc3)NC(=O)CNC(=O)[C@H](CCCCN)NC(=O)[C@H](Cc3ccc(O)cc3)NC2=O)C(=O)N[C@@H](Cc2ccc(O)cc2)C(=O)N[C@@H](CCCNC(=N)N)C(=O)N[C@@H](CCCCN)C(=O)N1)C(N)=O` [polypeptide (3), ArgTrpCysTyrArgLysCysTyrLysGlyPheCysTyrArgLysCysArgNH2] (H-RWCYRKCYKGFCYRKCR-NH2; disulfide 3-16, 7-12; N-terminus assumed) was tested. Which “EC50 (concentration at which cell death due to HIV infection is 50% inhibited)” value (HIV) did it give?
A: 0.07 µg/mL (≈ 0.0302 µM)

Q: What about the “selectivity … (in words)” value (HIV) of the same molecule?
A: particularly selective

Q: And the “selectivity index higher than for any” value (HIV)?
A: at least 7 fold

Q: And the “CC50 (50% cytotoxic concentration)” value (MT-4 cells)?
A: 50 µg/mL (≈ 21.6 µM)

Q: What does the source list for `N=C(N)NCCC[C@H](NC(=O)[C@@H]1CSSC[C@H](NC(=O)[C@H](Cc2c[nH]c3ccccc23)NC(=O)[C@H](CCCNC(=N)N)NC(=O)[C@@H](N)CCCNC(=N)N)C(=O)N[C@@H](Cc2ccc(O)cc2)C(=O)N[C@@H](CCCCN)C(=O)N[C@@H](CCCNC(=N)N)C(=O)N[C@H]2CSSC[C@H](NC(=O)[C@H](Cc3ccc(O)cc3)NC(=O)CNC(=O)[C@H](CCCCN)NC(=O)[C@H](Cc3ccc(O)cc3)NC2=O)C(=O)N[C@@H](Cc2ccc(O)cc2)C(=O)N[C@@H](CCCCN)C(=O)N[C@@H](CCCNC(=N)N)C(=O)N1)C(N)=O` [polypeptide (12), ArgArgTrpCysTyrLysArgCysTyrLysGlyTyrCysTyrLysArgCysArgNH2] (H-RRWCYKRCYKGYCYKRCR-NH2; disulfide 4-17, 8-13; N-terminus assumed)?
A: EC50 (concentration at which cell death due to HIV infection is 50% inhibited) (HIV): 0.49 µg/mL (≈ 0.197 µM); selectivity in killing HIV infected cells (in words) (HIV): particularly selective; selectivity index higher than for any of the known high endotoxin affinity compounds (HIV): at least 7 fold; CC50 (50% cytotoxic concentration) (MT-4 cells): 245 µg/mL (≈ 98.5 µM)

Q: For `N=C(N)NCCC[C@H](NC(=O)[C@@H]1CSSC[C@H](NC(=O)[C@H](Cc2c[nH]c3ccccc23)NC(=O)[C@@H](N)CCCNC(=N)N)C(=O)N[C@@H](Cc2ccc(O)cc2)C(=O)N[C@@H](CCCNC(=N)N)C(=O)N[C@@H](CCCCN)C(=O)N[C@H]2CSSC[C@H](NC(=O)[C@H](Cc3ccc(O)cc3)NC(=O)CNC(=O)[C@H](CCCCN)NC(=O)[C@H](Cc3ccc(O)cc3)NC2=O)C(=O)N[C@@H](Cc2ccc(O)cc2)C(=O)N[C@@H](CCCNC(=N)N)C(=O)N[C@@H](CCCCN)C(=O)N1)C(N)=O` [polypeptide (26), ArgTrpCysTyrArgLysCysTyrLysGlyTyrCysTyrArgLysCysArgNH2] (H-RWCYRKCYKGYCYRKCR-NH2; disulfide 3-16, 7-12; N-terminus assumed), which “EC50 (concentration at which cell death due to HIV infection is 50% inhibited)” value (HIV) is on record?
A: 0.18 µg/mL (≈ 0.0772 µM)

Q: What about the “selectivity … (in words)” value (HIV) of the same molecule?
A: particularly selective

Q: And the “selectivity index higher than for any” value (HIV)?
A: at least 7 fold

Q: And the “CC50 (50% cytotoxic concentration)” value (MT-4 cells)?
A: 165 µg/mL (≈ 70.8 µM)

Q: For `Cc1cn([C@H]2C[C@H](N=[N+]=[N-])[C@@H](CO)O2)c(=O)[nH]c1=O` [AZT, reference compound], which “EC50 (concentration at which cell death due to HIV infection is 50% inhibited)” value (HIV) is on record?
A: 4.8 µg/mL (≈ 18 µM)

Q: And the “CC50 (50% cytotoxic concentration)” value (MT-4 cells)?
A: 6.8 µg/mL (≈ 25.4 µM)

Q: What does the source list for `N=C(N)NCCC[C@H](NC(=O)[C@@H]1CSSC[C@H](NC(=O)[C@H](Cc2c[nH]c3ccccc23)NC(=O)[C@@H](N)CCCNC(=N)N)C(=O)N[C@@H](Cc2ccc(O)cc2)C(=O)N[C@@H](CCCNC(=N)N)C(=O)N[C@@H](CCCCN)C(=O)N[C@H]2CSSC[C@H](NC(=O)[C@H](Cc3ccccc3)NC(=O)CNC(=O)[C@H](CCCCN)NC(=O)[C@H](Cc3ccccc3)NC2=O)C(=O)N[C@@H](Cc2ccc(O)cc2)C(=O)N[C@@H](CCCNC(=N)N)C(=O)N[C@@H](CCCCN)C(=O)N1)C(N)=O` [polypeptide (21), ArgTrpCysTyrArgLysCysPheLysGlyPheCysTyrArgLysCysArgNH2] (H-RWCYRKCFKGFCYRKCR-NH2; disulfide 3-16, 7-12; N-terminus assumed)?
A: EC50 (concentration at which cell death due to HIV infection is 50% inhibited) (HIV): 0.08 µg/mL (≈ 0.0348 µM); CC50 (50% cytotoxic concentration) (MT-4 cells): 53 µg/mL (≈ 23.1 µM)
